From PubChem BioAssay AID180 (DTP/NCI, 2004)
“And” between values parts separate entries of the source, which are not always exact repeats. Identical values can stand only once.

Test system: BDF1 mice, Adenocarcinoma 755 s.c., tumor weight T/C
Test: NCI In Vivo Anticancer Drug Screen. Data for tumor model Adenocarcinoma 755 (subcutaneous) in B6D2F1 (BDF1) mice
Conditions: endpoint: mean tumor weight, higher = larger tumour
Description: The antitumor activity of compounds was measured in mice bearing transplantable tumors. Survival or tumor size were measured and the results are expressed as the measurement made in the treated group (T) divided by the measurement made in the vehicle treated control group (C). The tumor model used in this assay is Adenocarcinoma 755 (subcutaneous) in B6D2F1 (BDF1) mice

With `CC(=O)[C@@]1(O)CC[C@H]2[C@@H]3C[C@H](C)C4=CC(=O)C=C[C@]4(C)[C@@]3(F)[C@@H](O)C[C@@]21C` the T/C (dose: 0.37 mg/kg/injection, schedule: Q#A X022 (sc), vehicle: steriod suspending solution) was 55 % of control, the T/C (dose: 0.5 mg/kg/injection, schedule: Q01DX011 (sc), vehicle: steriod suspending solution) was 40 % of control and the T/C (dose: 0.75 mg/kg/injection, schedule: Q#A X022 (sc), vehicle: steriod suspending solution) was 67 % of control. For the same compound, the T/C (dose: 1.0 mg/kg/injection, schedule: Q03DX004 (sc), vehicle: steriod suspending solution) was 62 % of control, the T/C (dose: 1.5 mg/kg/injection, schedule: Q#A X022 (sc), vehicle: steriod suspending solution) was 44 % of control and the T/C (dose: 1.6 mg/kg/injection, schedule: Q01DX011 (sc), vehicle: steriod suspending solution) was 57 % of control. The T/C (dose: 2.0 mg/kg/injection, schedule: Q03DX004 (sc), vehicle: steriod suspending solution) was 44 % of control, the T/C (dose: 3.0 mg/kg/injection, schedule: Q01DX011 (im), vehicle: steriod suspending solution) was 43 % of control and the T/C (dose: 3.0 mg/kg/injection, schedule: Q01DX011 (sc), vehicle: steriod suspending solution) was 47 % of control and 51 % of control. The T/C (dose: 3.0 mg/kg/injection, schedule: Q#A X022 (sc), vehicle: steriod suspending solution) was 39 % of control, the T/C (dose: 3.2 mg/kg/injection, schedule: Q01DX011 (sc), vehicle: steriod suspending solution) was 31 % of control and the T/C (dose: 4.0 mg/kg/injection, schedule: Q03DX004 (sc), vehicle: steriod suspending solution) was 72 % of control. The T/C (dose: 6.0 mg/kg/injection, schedule: Q01DX011 (im), vehicle: steriod suspending solution) was 38 % of control, the T/C (dose: 6.0 mg/kg/injection, schedule: Q01DX011 (sc), vehicle: steriod suspending solution) was 16 % of control and 25 % of control and the T/C (dose: 6.3 mg/kg/injection, schedule: Q01DX011 (sc), vehicle: steriod suspending solution) was 49 % of control. The T/C (dose: 8.0 mg/kg/injection, schedule: Q03DX004 (sc), vehicle: steriod suspending solution) was 52 % of control, the T/C (dose: 9.0 mg/kg/injection, schedule: Q03DX004 (sc), vehicle: steriod suspending solution) was 35 % of control and the T/C (dose: 12.0 mg/kg/injection, schedule: Q01DX011 (sc), vehicle: steriod suspending solution) was 16 % of control. The T/C (dose: 12.5 mg/kg/injection, schedule: Q01DX006 (iv), vehicle: steriod suspending solution) was 45 % of control, the T/C (dose: 12.5 mg/kg/injection, schedule: Q01DX011 (im), vehicle: steriod suspending solution) was 21 % of control and the T/C (dose: 12.5 mg/kg/injection, schedule: Q01DX011 (ip), vehicle: steriod suspending solution) was 48 % of control. For the same compound, the T/C (dose: 12.5 mg/kg/injection, schedule: Q01DX011 (sc), vehicle: steriod suspending solution) was 19 % of control and 39 % of control, the T/C (dose: 18.0 mg/kg/injection, schedule: Q03DX004 (sc), vehicle: steriod suspending solution) was 35 % of control and the T/C (dose: 22.0 mg/kg/injection, schedule: Q## X002 (sc), vehicle: steriod suspending solution) was 55 % of control. The T/C (dose: 24.0 mg/kg/injection, schedule: Q01DX011 (sc), vehicle: steriod suspending solution) was 20 % of control, the T/C (dose: 25.0 mg/kg/injection, schedule: Q01DX006 (iv), vehicle: steriod suspending solution) was 30 % of control and the T/C (dose: 25.0 mg/kg/injection, schedule: Q01DX011 (im), vehicle: steriod suspending solution) was 12 % of control. For the same compound, the T/C (dose: 25.0 mg/kg/injection, schedule: Q01DX011 (ip), vehicle: steriod suspending solution) was 42 % of control, the T/C (dose: 25.0 mg/kg/injection, schedule: Q01DX011 (sc), vehicle: steriod suspending solution) was 12 % of control and the T/C (dose: 27.5 mg/kg/injection, schedule: Q01DX011 (sc), vehicle: steriod suspending solution) was 36 % of control and 54 % of control. The T/C (dose: 37.0 mg/kg/injection, schedule: Q03DX004 (sc), vehicle: steriod suspending solution) was 36 % of control, the T/C (dose: 43.0 mg/kg/injection, schedule: Q## X002 (sc), vehicle: steriod suspending solution) was 30 % of control and the T/C (dose: 50.0 mg/kg/injection, schedule: Q01DX006 (iv), vehicle: steriod suspending solution) was 25 % of control. The T/C (dose: 50.0 mg/kg/injection, schedule: Q01DX011 (im), vehicle: steriod suspending solution) was 14 % of control, the T/C (dose: 50.0 mg/kg/injection, schedule: Q01DX011 (ip), vehicle: steriod suspending solution) was 34 % of control and the T/C (dose: 50.0 mg/kg/injection, schedule: Q01DX011 (oral), vehicle: steriod suspending solution) was 47 % of control. The T/C (dose: 50.0 mg/kg/injection, schedule: Q01DX011 (sc), vehicle: steriod suspending solution) was 11 % of control, the T/C (dose: 55.0 mg/kg/injection, schedule: Q01DX011 (sc), vehicle: steriod suspending solution) was 28 % of control and the T/C (dose: 75.0 mg/kg/injection, schedule: Q03DX004 (sc), vehicle: steriod suspending solution) was 18 % of control. For the same compound, the T/C (dose: 87.0 mg/kg/injection, schedule: Q01DX001 (sc), vehicle: steriod suspending solution) was 53 % of control and 66 % of control, the T/C (dose: 87.0 mg/kg/injection, schedule: Q07DX002 (sc), vehicle: steriod suspending solution) was 37 % of control and the T/C (dose: 100.0 mg/kg/injection, schedule: Q01DX006 (iv), vehicle: steriod suspending solution) was 19 % of control. For the same compound, the T/C (dose: 100.0 mg/kg/injection, schedule: Q01DX011 (im), vehicle: steriod suspending solution) was 7 % of control, the T/C (dose: 100.0 mg/kg/injection, schedule: Q01DX011 (oral), vehicle: steriod suspending solution) was 59 % of control and the T/C (dose: 100.0 mg/kg/injection, schedule: Q01DX011 (sc), vehicle: steriod suspending solution) was 13 % of control. The T/C (dose: 150.0 mg/kg/injection, schedule: Q03DX004 (sc), vehicle: steriod suspending solution) was 25 % of control, the T/C (dose: 175.0 mg/kg/injection, schedule: Q01DX001 (sc), vehicle: steriod suspending solution) was 38 % of control and 43 % of control and the T/C (dose: 175.0 mg/kg/injection, schedule: Q07DX002 (sc), vehicle: steriod suspending solution) was 27 % of control. The T/C (dose: 200.0 mg/kg/injection, schedule: Q01DX006 (iv), vehicle: steriod suspending solution) was 14 % of control, the T/C (dose: 200.0 mg/kg/injection, schedule: Q01DX011 (im), vehicle: steriod suspending solution) was 8 % of control and the T/C (dose: 200.0 mg/kg/injection, schedule: Q01DX011 (oral), vehicle: steriod suspending solution) was 42 % of control. The T/C (dose: 200.0 mg/kg/injection, schedule: Q01DX011 (sc), vehicle: steriod suspending solution) was 3 % of control, the T/C (dose: 300.0 mg/kg/injection, schedule: Q01DX011 (sc), vehicle: steriod suspending solution) was 7 % of control and the T/C (dose: 300.0 mg/kg/injection, schedule: Q03DX004 (sc), vehicle: steriod suspending solution) was 15 % of control. For the same compound, the T/C (dose: 350.0 mg/kg/injection, schedule: Q01DX001 (sc), vehicle: steriod suspending solution) was 28 % of control and 47 % of control, the T/C (dose: 350.0 mg/kg/injection, schedule: Q07DX002 (sc), vehicle: steriod suspending solution) was 19 % of control and the T/C (dose: 400.0 mg/kg/injection, schedule: Q01DX011 (oral), vehicle: steriod suspending solution) was 34 % of control. For the same compound, the T/C (dose: 400.0 mg/kg/injection, schedule: Q03DX004 (sc), vehicle: steriod suspending solution) was 19 % of control, the T/C (dose: 500.0 mg/kg/injection, schedule: Q01DX011 (oral), vehicle: steriod suspending solution) was 37 % of control and the T/C (dose: 600.0 mg/kg/injection, schedule: Q01DX011 (oral), vehicle: steriod suspending solution) was 38 % of control. For the same compound, the T/C (dose: 600.0 mg/kg/injection, schedule: Q03DX004 (sc), vehicle: steriod suspending solution) was 15 % of control, the T/C (dose: 700.0 mg/kg/injection, schedule: Q01DX001 (sc), vehicle: steriod suspending solution) was 26 % of control and 43 % of control and the T/C (dose: 700.0 mg/kg/injection, schedule: Q07DX002 (sc), vehicle: steriod suspending solution) was 19 % of control. The T/C (dose: 1000.0 mg/kg/injection, schedule: Q01DX001 (sc), vehicle: steriod suspending solution) was 36 % of control and 45 % of control, the T/C (dose: 1000.0 mg/kg/injection, schedule: Q## X002 (sc), vehicle: steriod suspending solution) was 22 % of control and the T/C (dose: 1500.0 mg/kg/injection, schedule: Q01DX001 (sc), vehicle: steriod suspending solution) was 24 % of control and 40 % of control. For the same compound, the T/C (dose: 1500.0 mg/kg/injection, schedule: Q## X002 (sc), vehicle: steriod suspending solution) was 24 % of control.

In the case of `C#C[C@]1(O)CC[C@H]2[C@@H]3CCc4cc(O)ccc4[C@H]3CC[C@@]21C`, the T/C (dose: 85.0 mg/kg/injection, schedule: Q01DX011 (sc), vehicle: steriod suspending solution) is reported as 51 % of control and 53 % of control, the T/C (dose: 170.0 mg/kg/injection, schedule: Q01DX011 (sc), vehicle: steriod suspending solution) is reported as 38 % of control and 43 % of control and the T/C (dose: 340.0 mg/kg/injection, schedule: Q01DX011 (sc), vehicle: steriod suspending solution) is reported as 37 % of control and 43 % of control. The T/C (dose: 680.0 mg/kg/injection, schedule: Q01DX011 (sc), vehicle: steriod suspending solution) was 23 % of control.

For `O=c1[nH]c(=O)n(C2CC(O)C(CO)O2)cc1I` (centres undefined), the T/C (dose: 31.25 mg/kg/injection, schedule: Q01DX011 (ip), vehicle: carboxymethylcellulose (CMC)) was 62 % of control, the T/C (dose: 62.5 mg/kg/injection, schedule: Q01DX011 (ip), vehicle: carboxymethylcellulose (CMC)) was 65 % of control and the T/C (dose: 125.0 mg/kg/injection, schedule: Q01DX011 (ip), vehicle: carboxymethylcellulose (CMC)) was 28 % of control and 51 % of control.
